Results taken from PubChem BioAssay AID651620 (Broad Institute, 2012).

Tested on: non-replicating M. tuberculosis, luciferase reporter
Experiment: inhibitors of non-replicating M. tuberculosis, dose response, luciferase, dry powder (AID 651620)

[N-]=[N+]=NCCOCCNC(=O)CCCn1cc(CS(=O)c2nnc(-c3ccc(F)cc3)o2)nn1 (stereo unspecified)
IC90: 125 µM
